Patent US20260297060A1, “COMPOUNDS FOR THE DEGRADATION OF MUTANT BRAF” (C4 THERAPEUTICS, INC., priority 2023, published 2026)
Where two headings read alike, the source gives them in different places.

Test: Pharmacokinetics in female BALB/c nude mice bearing A375 xenografts, 1 day dosing (PK and PD study): plasma, tumor and brain concentrations, AUC
Type: in vivo
Conditions: mouse, po
Description: The concentrations of Dabrafenib, Compound 26 and Compound 141 in the treatment of female BALB/c nude mice bearing A375 xenografts are shown in Table 62-Table 72 and FIG. 52-FIG. 73.

[1] = plasma, 1.5 mg/kg, Compound 141, 1.5 mg/kg p.o. BID × 1 day, post 1st dose, read-out: Mean Concentration in Plasma ± SEM
[2] = plasma, 1.5 mg/kg, Compound 141, 1.5 mg/kg p.o. BID × 1 day, post 2nd dose, read-out: Mean Concentration in Plasma ± SEM
[3] = plasma, 3 mg/kg, 3 mg/kg p.o. QD × 1 day, read-out: Mean Concentration in Plasma ± SEM
[4] = plasma, 5 mg/kg, 5 mg/kg p.o. BID × 1 day, post 1st dose, read-out: Mean Concentration in Plasma ± SEM
[5] = plasma, 5 mg/kg, 5 mg/kg p.o. BID × 1 day, post 2nd dose, read-out: Mean Concentration in Plasma ± SEM
[6] = tumor, 0.75 mg/kg, 0.75 mg/kg p.o. BID × 1 day, post 2nd dose, read-out: Mean Concentration in Tumor ± SEM
[7] = tumor, 1 mg/kg, 1 mg/kg p.o. TID × 1 day, post 3rd dose, read-out: Mean Concentration in Tumor ± SEM
[8] = tumor, 1.5 mg/kg, Compound 141, 1.5 mg/kg p.o. BID × 1 day, post 2nd dose, read-out: Mean Concentration in Tumor ± SEM
[9] = tumor, 3 mg/kg, 3 mg/kg p.o. QD × 1 day, read-out: Mean Concentration in Tumor ± SEM
[10] = tumor, 5 mg/kg, 5 mg/kg p.o. BID × 1 day, post 2nd dose, read-out: Mean Concentration in Tumor ± SEM

CCN(C)S(=O)(=O)Nc1ccc(F)c(Oc2ccc3ncn(C4CC5(CCN(C6CC7(C6)CN(c6cc8c(cc6F)c(N6CCC(=O)NC6=O)nn8C)C7)CC5)C4)c(=O)c3c2)c1C#N (centres unmarked) [Compound 141, 6-[2-cyano-3-[[ethyl(methyl)sulfamoyl]amino]-6-fluoro-phenoxy]-3-[7-[2-[3-(2,4-dioxohexahydropyrimidin-1-yl)-5-fluoro-1-methyl-indazol-6-yl]-2-azaspiro[3.3]heptan-6-yl]-7-azaspiro[3.5]nonan-2-yl]-4-oxo-quinazoline] showed a concentration at 36 h (plasma, 1 mg/kg, 1 mg/kg p.o. TID × 1 day, post 3rd dose, read-out: Mean Concentration in Plasma ± SEM) of 3.2 ± 0.392 ng/mL, a concentration at 0.25 h [1] of 710 ± 61.9 ng/mL and a concentration at 0.5 h [1] of 1150 ± 94 ng/mL. The concentration at 1 h [1] was 2030 ± 255 ng/mL, the concentration at 2 h [1] was 1610 ± 128 ng/mL and the concentration at 4 h [1] was 796 ± 312 ng/mL. For the same molecule, the concentration at 8 h [1] was 256 ± 19.3 ng/mL, the concentration at 12 h [1] was 43.4 ± 4.65 ng/mL and the concentration at 0.25 h [2] was 359 ± 30.7 ng/mL. The concentration at 0.5 h [2] was 830 ± 129 ng/mL, the concentration at 1 h [2] was 1560 ± 99.1 ng/mL and the concentration at 2 h [2] was 1550 ± 181 ng/mL. The concentration at 4 h [2] was 831 ± 96.6 ng/mL, the concentration at 10 h [2] was 115 ± 34.3 ng/mL and the concentration at 24 h [2] was 1.2 ± 0.262 ng/mL. For the same molecule, the concentration at 0.25 h [3] was 1070 ± 209 ng/mL, the concentration at 0.5 h [3] was 2020 ± 160 ng/mL and the concentration at 1 h [3] was 2830 ± 372 ng/mL. It also gave a concentration at 2 h [3] of 3660 ± 315 ng/mL, a concentration at 4 h [3] of 1440 ± 285 ng/mL and a concentration at 8 h [3] of 661 ± 279 ng/mL. It also gave a concentration at 10 h [3] of 307 ± 60.4 ng/mL, a concentration at 24 h [3] of 3.86 ± 2.5 ng/mL and a concentration at 36 h [3] of 1.05 ng/mL. It also gave a concentration at 0.25 h [4] of 1810 ± 126 ng/mL, a concentration at 0.5 h [4] of 3460 ± 404 ng/mL and a concentration at 1 h [4] of 4860 ± 155 ng/mL. For the same molecule, the concentration at 2 h [4] was 3650 ± 760 ng/mL, the concentration at 4 h [4] was 1220 ± 55.5 ng/mL and the concentration at 8 h [4] was 648 ± 142 ng/mL. For the same molecule, the concentration at 12 h [4] was 43.6 ± 2.7 ng/mL, the concentration at 0.25 h [5] was 1680 ± 89.6 ng/mL and the concentration at 0.5 h [5] was 3160 ± 596 ng/mL. It also gave a concentration at 1 h [5] of 4850 ± 488 ng/mL, a concentration at 2 h [5] of 3620 ± 428 ng/mL and a concentration at 4 h [5] of 1750 ± 468 ng/mL. For the same molecule, the concentration at 10 h [5] was 484 ± 109 ng/mL, the concentration at 24 h [5] was 4.28 ± 1.89 ng/mL and the concentration at 36 h [5] was 2.06 ± 1.17 ng/mL. It also gave a concentration at 48 h [5] of 0.635 ng/mL, a concentration at 1 h [6] of 117 ± 11 ng/g and a concentration at 4 h [6] of 143 ± 37.7 ng/g. The concentration at 10 h [6] was 93 ± 22.1 ng/g, the concentration at 24 h [6] was 3.27 ng/g and the concentration at 1 h [7] was 152 ± 35.7 ng/g. For the same molecule, the concentration at 4 h [7] was 254 ± 43.2 ng/g, the concentration at 10 h [7] was 205 ± 40.9 ng/g and the concentration at 24 h [7] was 16.7 ± 12.2 ng/g. It also gave a concentration at 48 h [7] of 8.07 ng/g, a concentration at 0.25 h [8] of 58.9 ± 26.7 ng/g and a concentration at 0.5 h [8] of 61.5 ± 14 ng/g. For the same molecule, the concentration at 1 h [8] was 239 ± 17.6 ng/g, the concentration at 2 h [8] was 382 ± 43.9 ng/g and the concentration at 4 h [8] was 214 ± 27.1 ng/g. The concentration at 10 h [8] was 54.7 ± 17.9 ng/g, the concentration at 24 h [8] was 22.5 ± 18.5 ng/g and the concentration at 36 h [8] was 38.5 ng/g. For the same molecule, the concentration at 48 h [8] was 11.1 ng/g, the concentration at 1 h [9] was 254 ± 26.3 ng/g and the concentration at 4 h [9] was 439 ± 90.9 ng/g. The concentration at 10 h [9] was 130 ± 19 ng/g, the concentration at 24 h [9] was 12.9 ± 7.75 ng/g and the concentration at 48 h [9] was 7.64 ng/g. The concentration at 1 h [10] was 626 ± 78.6 ng/g, the concentration at 4 h [10] was 636 ± 83.4 ng/g and the concentration at 10 h [10] was 205 ± 47.2 ng/g. For the same molecule, the concentration at 24 h [10] was 6.26 ± 1.12 ng/g and the concentration at 48 h [10] was 10.6 ng/g.
